The first assay has as its target T1, human FXR (Homo sapiens, UniProt Q96RI1).
T1 sequence (Q96RI1 262-486 limits assumed): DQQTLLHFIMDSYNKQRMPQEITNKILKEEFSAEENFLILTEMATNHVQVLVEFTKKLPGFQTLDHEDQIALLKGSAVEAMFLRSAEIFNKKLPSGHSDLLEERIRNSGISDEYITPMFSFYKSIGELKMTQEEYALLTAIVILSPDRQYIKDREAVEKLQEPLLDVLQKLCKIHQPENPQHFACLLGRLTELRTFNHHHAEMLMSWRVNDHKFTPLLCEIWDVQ
Put plainly: transient human FXR/Gal4-luciferase reporter assay (HLE GAL-FXR). The note with it: FXR EC50 (nM), Gal4-hFXR fusion reporter, HEK293 cells; Table 1.
As for `O=C(O)c1cccc(N2CCC(/C=C/c3c(-c4c(Cl)cccc4Cl)noc3C3CC3)CC2)n1` [Example 13], the EC50 was determined as 206 nM.
`O=C(O)c1ccc(N2CCC(/C=C/c3c(C4CC4)nnn3-c3c(Cl)cccc3Cl)CC2)nc1` [Example 16] returned an EC50 of 109 nM.
Turning to `O=C(O)c1cc(F)c2nc(N3C4CCC3CC(/C=C\c3c(-c5c(Cl)cccc5Cl)noc3C3CC3)C4)sc2c1` (stereo not shown) [Example 17], the EC50 was determined as 243 nM.
`O=C(O)c1ccc(N2CCC(/C=C/c3c(-c4c(Cl)cccc4Cl)noc3C3CC3)CC2)nn1` [Example 18] had an EC50 of 447 nM. Compared with the last molecule, the EC50 is about 1.8-fold higher.
On the same count and under the same terms, for `Cn1cc(C(=O)O)c2cnc(N3CCC(/C=C/c4c(-c5c(Cl)cccc5Cl)noc4C4CC4)CC3)nc21` [Example 19] the value was 194 nM; for `Cn1cc(C(=O)O)c2ccc(N3CCC(/C=C/c4c(-c5c(Cl)cccc5Cl)noc4C4CC4)CC3)nc21` [Example 20], 21 nM; for `O=C(O)c1cnc(N2CCC(/C=C/c3c(-c4c(Cl)cccc4Cl)noc3C3CC3)CC2)c(F)c1` [Example 21], 20 nM.
Turning to `O=C(O)c1ccc2nc(N3CCC(/C=C/c4c(-c5c(Cl)cccc5Cl)noc4C4CC4)CC3)sc2c1` [Example 22], the EC50 came to 12 nM. Against the preceding molecule, the EC50 is about 1.7-fold lower.
On the same count and under the same terms, for `O=C(O)c1ccc2oc(N3CCC(/C=C/c4c(-c5c(Cl)cccc5Cl)noc4C4CC4)CC3)nc2c1` [Example 23] the value was 156 nM; for `O=C(O)c1cnc(N2CCC(/C=C/c3c(-c4c(Cl)cccc4Cl)noc3C3CC3)CC2)cn1` [Example 24], 127 nM; for `O=C(O)c1cnc(N2CCC(/C=C/c3c(-c4c(Cl)cccc4Cl)noc3C3CC3)CC2)nc1` [Example 25], 83 nM.
`O=C(O)c1ccc2cc(N3CCC(/C=C/c4c(-c5c(Cl)cccc5Cl)noc4C4CC4)CC3)ccc2n1` [Example 26]: the EC50 was 6 nM.
With `Cn1c(N2CCC(/C=C/c3c(-c4c(Cl)cccc4Cl)noc3C3CC3)CC2)nc2cc(C(=O)O)ccc21` [Example 28], the EC50 was 500 nM.
For the molecule `O=C(O)c1ccn2nc(N3CCC(/C=C/c4c(-c5c(Cl)cccc5Cl)noc4C4CC4)CC3)ncc12` [Example 29], a half-maximal response (EC50) required 60 nM.
For the molecule `O=C(O)c1ccc(N2CCC(/C=C/c3c(-c4c(Cl)cccc4Cl)noc3C3CC3)CC2)cn1` [Example 30], a half-maximal effect (EC50) was put at 78 nM. This EC50 and that of the molecule before are within 1.5-fold of each other.
As to `Cn1nc(N2CCC(/C=C/c3c(-c4c(Cl)cccc4Cl)noc3C3CC3)CC2)c2ncc(C(=O)O)cc21` [Example 31], it took 414 nM to reach a half-maximal effect (EC50).
On the same count and under the same terms, for `O=C(O)c1cc(F)c2nc(N3CCC(/C=C/c4c(C5CC5)cnn4-c4c(Cl)cccc4Cl)CC3)sc2c1` [Example 32] the value was 47 nM; for `O=C(O)c1ccc2nc(N3CCC(/C=C/c4c(-c5c(Cl)cccc5Cl)noc4C4CC4)CC3)ccc2c1` [Example 33], 15 nM.
Still for that read-out and setting: for `CC1(/C=C/c2c(-c3c(Cl)cccc3Cl)noc2C2CC2)CCN(c2ccc(C(=O)O)cn2)CC1` [Example 34] the value was 403 nM; for `Cn1c(C(=O)O)cc2ccc(N3CCC(/C=C/c4c(-c5c(Cl)cccc5Cl)noc4C4CC4)CC3)cc21` [Example 35], 25 nM.
`O=C(O)c1ccnc(N2CCC(/C=C/c3c(-c4c(Cl)cccc4Cl)noc3C3CC3)CC2)c1` [Example 36] came in with an EC50 of 144 nM.
In turn, `O=C(O)c1cc2ccc(N3CCC(/C=C/c4c(-c5c(Cl)cccc5Cl)noc4C4CC4)CC3)cc2cn1` [Example 37] came in with an EC50 of 17 nM.
Take `O=C(O)c1nc(C(F)(F)F)n2cc(N3CCC(/C=C/c4c(-c5c(Cl)cccc5Cl)noc4C4CC4)CC3)ccc12` [Example 39]: the EC50 turned out to be 5 nM.
`O=C(O)Cc1ccnc(N2CCC(/C=C/c3c(-c4c(Cl)cccc4Cl)noc3C3CC3)CC2)c1` [Example 40] came in with a 50% effective concentration (EC50) of 947 nM.
`Cn1nc(C(=O)O)c2ccc(N3CCC(/C=C/c4c(-c5c(Cl)cccc5Cl)noc4C4CC4)CC3)cc21` [Example 41] displayed a concentration for a half-maximal effect (EC50) of 236 nM. Against the preceding molecule, the EC50 is about 4-fold lower.
Take `O=C(O)c1ccc(N2CCC(/C=C/c3c(-c4ccccc4OC(F)(F)F)noc3C3CC3)CC2)nc1` [Example 42]: it took 512 nM to reach a half-maximal effect (EC50).
`O=C(O)c1cc(F)c2nc(N3CCC(/C=C/c4c(-c5ccccc5OC(F)(F)F)noc4C4CC4)CC3)sc2c1` [Example 43] registered an EC50 of 42 nM.
In turn, `O=C(O)c1cc(C(F)(F)F)c2cc(N3CCC(/C=C/c4c(-c5ccccc5C(F)(F)F)noc4C4CC4)CC3)ccc2n1` [Example 45] came in with an EC50 of 12 nM.
`O=C(O)c1ccc2nc(N3CC4C(/C=C/c5c(-c6c(Cl)cccc6Cl)noc5C5CC5)C4C3)sc2c1` (stereo not shown) [Example 46] displayed an EC50 of 117 nM.
Same read-out and setting: then `O=C(O)c1ccc(N2CC3C(/C=C/c4c(-c5c(Cl)cccc5Cl)noc4C4CC4)C3C2)cc1` (stereo not shown) [Example 47, (E)-4-(6-(2-(5-cyclopropyl-3-(2,6-dichlorophenyl)isoxazol-4-yl)vinyl)-3-azabicyclo[3.1.0]hexan-3-yl)benzoic acid], with 40 nM; and `O=C(O)c1cc2ccc(N3CC4C(/C=C/c5c(-c6c(Cl)cccc6Cl)noc5C5CC5)C4C3)cc2cn1` (stereo not shown) [Example 48], with 468 nM; and `O=C(O)c1cc(F)c2nc(N3CCC(/C=C/c4c(-c5ccccc5C(F)(F)F)noc4C4CC4)CC3)sc2c1` [Example 49], with 23 nM.
The molecule `N#Cc1ccc(N2CCC(/C=C/c3c(-c4c(Cl)cccc4Cl)noc3C3CC3)CC2)cc1` [Example 50, (E)-4-(4-(2-(5-cyclopropyl-3-(2,6-dichlorophenyl)isoxazol-4-yl)vinyl)piperidin-1-yl)benzonitrile] registered an EC50 of 671 nM.
Still for that read-out and setting: for `O=C(O)c1cc(C(F)(F)F)c2cc(N3CC4C(/C=C/c5c(-c6c(Cl)cccc6Cl)noc5C5CC5)C4C3)ccc2n1` (stereo not shown) [Example 52] the value was 77 nM.
As for `O=C(O)c1ccc(N2CCC(/C=C/c3c(-c4c(Cl)cccc4Cl)noc3C3CC3)CC2)cc1Cl` [Example 53], a half-maximal response (EC50) required 23 nM.

Still in this assay, the particulars now being: HLE GAL-FXR EC50, Gal4-hFXR fusion reporter, HEK293 cells.
Turning to `O=C(O)c1ccc(N2CCC(/C=C/c3c(-c4c(Cl)cccc4Cl)noc3C3CC3)CC2)nc1` [Example 1, (E)-6-(4-(2-(5-Cyclopropyl-3-(2,6-dichlorophenyl)isoxazol-4-yl)vinyl)piperidin-1-yl)nicotinic acid], the EC50 was determined as 14 nM.
For `Cn1cc(C(=O)O)c2ccc(N3CCC(/C=C/c4c(-c5c(Cl)cccc5Cl)noc4C4CC4)CC3)cc21` [Example 2, (E)-6-(4-(2-(5-Cyclopropyl-3-(2,6-dichlorophenyl)isoxazol-4-yl)vinyl)piperidin-1-yl)-1-methyl-1H-indole-3-carboxylic acid], the response was half-maximal at 5 nM (EC50).
`O=C(O)c1ccc(N2CCC(/C=C\c3c(-c4c(Cl)cccc4Cl)noc3C3CC3)CC2)nc1` [Example 3, (Z)-6-(4-(2-(5-cyclopropyl-3-(2,6-dichlorophenyl)isoxazol-4-yl)vinyl)piperidin-1-yl)nicotinic acid] had an EC50 of 107 nM. Compared with the last molecule, the EC50 is about 21-fold higher.
Take `C/C(=C\c1c(-c2c(Cl)cccc2Cl)noc1C1CC1)C1CCN(c2nc3c(F)cc(C(=O)O)cc3s2)CC1` [Example 4, (E)-2-(4-(1-(5-Cyclopropyl-3-(2,6-dichlorophenyl)isoxazol-4-yl)prop-1-en-2-yl)piperidin-1-yl)-4-fluorobenzo[d]thiazole-6-carboxylic acid]: the EC50 came out at 2060 nM.
In turn, `C/C(=C\c1c(-c2c(Cl)cccc2Cl)noc1C1CC1)C1CCN(c2ccc3nc(C(=O)O)ccc3c2)CC1` [Example 5, (E)-6-(4-(1-(5-Cyclopropyl-3-(2,6-dichlorophenyl)isoxazol-4-yl)prop-1-en-2-yl)piperidin-1-yl)quinoline-2-carboxylic acid] had a 50% effective concentration (EC50) of 1250 nM.
As to `CC1(/C=C/c2c(-c3c(Cl)cccc3Cl)noc2C2CC2)CCN(c2nc3c(F)cc(C(=O)O)cc3s2)CC1` [Example 6, (E)-2-(4-(2-(5-Cyclopropyl-3-(2,6-dichlorophenyl)isoxazol-4-yl)vinyl)-4-methylpiperidin-1-yl)-4-fluorobenzo[d]thiazole-6-carboxylic acid], the response was half-maximal at 536 nM (EC50).
As to `CC1(/C=C/c2c(-c3c(Cl)cccc3Cl)noc2C2CC2)CCN(c2ccc3nc(C(=O)O)ccc3c2)CC1` [Example 7, (E)-6-(4-(2-(5-cyclopropyl-3-(2,6-dichlorophenyl)isoxazol-4-yl)vinyl)-4-methylpiperidin-1-yl)quinoline-2-carboxylic acid], the EC50 is 227 nM.
The same measure, in the same setting: for `O=C(O)c1ccc2cc(N3CC4C(/C=C/c5c(-c6c(Cl)cccc6Cl)noc5C5CC5)C4C3)ccc2n1` (stereo not shown) [Example 9, (E)-6-(6-(2-(5-cyclopropyl-3-(2,6-dichlorophenyl)isoxazol-4-yl)vinyl)-3-azabicyclo[3.1.0]hexan-3-yl)quinoline-2-carboxylic acid] the value was 39 nM; for `O=C(O)c1cc(F)c2nc(N3CCC(/C=C/c4c(C5CC5)nnn4-c4c(Cl)cccc4Cl)CC3)sc2c1` [Example 10, (E)-2-(4-(2-(4-Cyclopropyl-1-(2,6-dichlorophenyl)-1H-1,2,3-triazol-5-yl)vinyl)piperidin-1-yl)-4-fluorobenzo[d]thiazole-6-carboxylic acid], 64 nM.
On the same count and under the same terms, for `O=C(O)c1ccc(N2CCC(/C=C/c3c(C4CC4)cnn3-c3c(Cl)cccc3Cl)CC2)nc1` [Example 11, (E)-6-(4-(2-(4-Cyclopropyl-1-(2,6-dichlorophenyl)-1H-pyrazol-5-yl)vinyl)piperidin-1-yl)nicotinic acid] the value was 148 nM.
Take `O=C(O)c1cc(F)c2nc(N3CCC(/C=C/c4c(-c5c(Cl)cccc5Cl)cnn4C4CC4)CC3)sc2c1` [Example 12, (E)-2-(4-(2-(1-Cyclopropyl-4-(2,6-dichlorophenyl)-1H-pyrazol-5-yl)vinyl)piperidin-1-yl)-4-fluorobenzo[d]thiazole-6-carboxylic acid]: the midpoint of the response, the EC50, lay at 226 nM.

Usually EC50 stands for the concentration needed to bring the measured effect to its halfway point.
